Test [1] deals with T1, Crossover junction endonuclease MUS81 (Homo sapiens, UniProt Q96NY9).
T1 sequence (Q96NY9 whole entry): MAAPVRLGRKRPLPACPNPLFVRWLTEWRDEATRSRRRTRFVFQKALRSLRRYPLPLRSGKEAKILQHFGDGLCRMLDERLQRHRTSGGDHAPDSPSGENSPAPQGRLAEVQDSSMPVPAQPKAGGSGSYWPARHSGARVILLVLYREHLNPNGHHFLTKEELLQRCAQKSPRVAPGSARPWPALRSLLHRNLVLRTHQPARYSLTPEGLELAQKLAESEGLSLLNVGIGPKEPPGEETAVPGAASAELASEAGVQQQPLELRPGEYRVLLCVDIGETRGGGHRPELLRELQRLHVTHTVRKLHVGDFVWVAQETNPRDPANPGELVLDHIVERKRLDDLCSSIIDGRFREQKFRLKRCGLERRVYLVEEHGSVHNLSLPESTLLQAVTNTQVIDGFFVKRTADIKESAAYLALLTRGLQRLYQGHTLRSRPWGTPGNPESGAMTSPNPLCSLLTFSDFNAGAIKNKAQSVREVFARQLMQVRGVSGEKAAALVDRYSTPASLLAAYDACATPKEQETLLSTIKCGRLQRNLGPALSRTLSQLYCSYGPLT
The test can be described thus: Binding affinity to human GST-tagged MUS81-ECE1 expressed in Escherichia coli BL21(DE3)Rosetta2 cells assessed as dissociation constant by Surface plasmon resonance analysis. (In general: Surface plasmon resonance follows binding to a sensor surface in real time, without labels.)

Test [2] deals with T1, Crossover junction endonuclease MUS81. As to the kind of experiment: Binding affinity to human GST-tagged MUS81-ECE2 expressed in Escherichia coli BL21(DE3)Rosetta2 cells assessed as dissociation constant by Surface plasmon resonance analysis.

In BindingDB's records for doi:10.1016/j.bmc.2023.117383 (Fuzhou University, 2023) one finds Kd data, which are given here for one compound.

A word on the Kd: it is the constant that tells how readily two partners part at equilibrium.

`O=C(N/N=C/c1cc(O)c(O)cc1O)c1cc2ccccc2cc1O`: the Kd in test [1] and in test [2] was 6.1 nM each time.
